Source: patent US20250041422A1, “METHOD OF TREATING ARRHYTHMIA, POPULATION OF PACEMAKER CARDIOMYOCYTES, AND METHOD OF TREATING CARDIAC ARRHYTHEMIA USING POPULATION OF PACEMAKER CARDIOMYOCYTES” (priority 2022, published 2025)
“Also recorded” adds a separate entry of the source. Each block holds one compound with its values, some of them ahead of it.

Columns and labels:
[1] = system: Tbx18-induced pacemaker cardiomyocytes; experiment: Beating rate / electrical firing rate of Tbx18-induced pacemaker cardiomyocytes (video or MEA); type: cell-based, rat
Procedure: (§1) The Tbx18-PCs were used as the cell model of pacemaker cardiomyocytes, which were generated by the transduction of VMs with adenoviral human Tbx18 (MOI [multiplicity of infection]: 10; green fluorescent protein [GFP] reporter, ADV-225152, Vector Biolabs, Malvern, USA) for 24 hours (Kapoor et al; Hu et al.). Those with adenovirus-CMV-GFP were used as control VMs (Tsai et al., J Biomed Sci, 2015). For the cocultures of Tbx18-PCs and fibroblasts, a ratio of fibroblasts/VMs ( 1/10) was first plated on fibronectin-coated wells, and adenoviral Tbx18 was transduced for 24 hours one day after seeding to induce PCs. […] Therefore, the beating rates, metabolic and molecular phenotypes, including microelectrode array (MEA), whole transcriptomes, Seahorse analysis, metabolomics, glycolysis metabolites (lactate or DHAP), protein and gene transcripts were analyzed 3-5 days after Tbx18 transduction. The beating rates were recorded by MEA or video. An inverted microscope (AXIO Observer Al, Carl Zeiss AG, Oberkochen, Germany) was used for 10-second video capture. Video was analyzed with Q Capture Pro 6.0 (Teledyne Technologies, CA, USA).
(§2) For the experiments of drug treatment, Tbx18-PCs after re-expression of Tbx18 were treated with sodium pyruvate (1 mM, 11360-070, Thermo Fisher Scientific, 3 days), 2-deoxy-D-glucose (2-DG, 5 mM, D8375, Sigma-Aldrich, 3 days), wortmannin (PI3K inhibitor, 100 nM, 12-338, Merck Millipore, MA, USA, 4 days), anti-integrin β1 monoclonal antibody (ltgb1, MAB1987Z, 10 μg/mL, Merck Millipore, 2 days), or SB203580 (p38-MAP kinase inhibitor, 559389, 1 μM, Merck Millipore, 3 days), respectively. Then the beating rate and gene expression were analyzed.
(§3) Tbx18-PCs or human IPS-CMs were transduced with human Aldoc adenovirus (CMV promotor, 068583A, Applied Biological Materials, Richmond, BC, Canada), and CMV-null adenovirus was used as a control (000047A, Applied Biological Materials) for 24 hours. Aldoc overexpression was confirmed by Aldoc transcripts (FIG. 1J). The protein, gene transcripts, and beating rates were analyzed 3 days after transduction. The viral titer used in cell transduction of aldolase c overexpression is MOI of 10. The transduced cells were not subjected to enrichment by the antibiotic selection.
MEA was used to record electrical firing in Tbx18-PCs, Tbx18-PC tissue sheets, or human IPS-CMs. The cells or tissue sheets were seeded on fibronectin-coated MEA CytoView MEA 24-White plate at 37° C. and 5% C02 (M384-tMEA-24W, Axion BioSystems, Atlanta, USA). The electrical firing rates were recorded by Maestro Edge (Axion BioSystems). The continuous recording of electrical signals for 5 minutes was used for the analysis (sampling frequency: 12.5 kHz, low pass and high pass filter: 2 kHz and 0.1 Hz) by AxIS Navigator software Axion BioSystems. In human IPS-CMs, the cells were further treated with epinephrine (150 ng/mL, Taiwan Biotech Co., Ltd) after recording baseline electrical firing rate. Similarly, continuous recording of electrical signals for 5 minutes after the treatment was used for the analysis.
The cocultures of Tbx18-pacemaker cardiomyocytes (PCs) and fibroblasts, a ratio of fibroblasts/VMs ( 1/10) was first plated on fibronectin-coated wells, and adenoviral Tbx18 (MOI [multiplicity of infection]: 10, ADV-225152, Vector Biolabs, Malvern, USA) was transduced for 24 hours after seeding to induce PCs. After re-expression of Tbx18 were treated with the inhibitors of PI3K (wortmannin, PIK-75, Duvelisib, Alpelisib, Copanlisib, Idelalisib, and Eganelisib), and one IKK inhibitor (BMS-345541) for 4 days. Then the beating rate and Aldoc transcriptional expressions were analyzed. The beating rates were recorded by video. An inverted microscope (AXIO Observer Al, Carl Zeiss AG, Oberkochen, Germany) was used for 10-second video capture. We analyzed the video with Q Capture Pro 6.0 (Teledyne Technologies, CA, USA). Aldoc gene transcriptional expressions were analyzed by quantitative real-time PCR. […]

Hcn4 = Hcn4 expression in Tbx18-induced pacemaker cardiomyocytes (real-time PCR); type: cell-based, rat; conditions: for Hcn4 expression: 3 days, Tbx18-PCs
Procedure: as §2, §3
(§4) Total RNA was extracted from cultured VMs using the RNeasy® Mini Kit (74106, Qiagen, Venlo, Netherlands). Complementary DNAs (cDNAs) were synthesized using a SuperScript® […] First-Strand Synthesis System (18080051, Thermo Fisher Science). Quantitative real-time PCR (qRT-PCR) was performed using Applied Biosystems™ StepOnePlus Real-Time PCR system with TaqMan probe assays (4331182, Invitrogen, Waltham, Massachusetts, USA) and PrimeTime qPCR Probe Assays (Integrated DNA Technologies, Inc., Coralville, Iowa, USA). The internal control was Gapdh. The conditions of thermocycle used in amplification were denaturation at 95° C. for 15 seconds and annealing and extension step at 60° C. for 60 seconds by 40 cycles. The relative values of gene transcripts were analyzed by ΔΔCt method. All the probes used are listed below in Table 1.

aldolase c (Aldoc) = experiment: Aldoc transcripts by quantitative real-time PCR in treated Tbx18-PC/fibroblast cocultures; type: cell-based, rat; conditions: for transcriptional expressions of Aldolase C / Aldolase C expressions: 4 days; for aldolase c expressions within pacemaker cardiomyocytes: in-vitro, summary statement, concentration not given at the place
Procedure: as §1
as §2, with “analyzed. […]” for “analyzed.”
as §4
The cocultures of Tbx18-pacemaker cardiomyocytes (PCs) and fibroblasts, a ratio of fibroblasts/VMs ( 1/10) was first plated on fibronectin-coated wells, and adenoviral Tbx18 (MOI [multiplicity of infection]: 10, ADV-225152, Vector Biolabs, Malvern, USA) was transduced for 24 hours after seeding to induce PCs. After re-expression of Tbx18 were treated with the inhibitors of PI3K (wortmannin, PIK-75, Duvelisib, Alpelisib, Copanlisib, Idelalisib, and Eganelisib), and one IKK inhibitor (BMS-345541) for 4 days. Then the beating rate and Aldoc transcriptional expressions were analyzed. The beating rates were recorded by video. An inverted microscope (AXIO Observer Al, Carl Zeiss AG, Oberkochen, Germany) was used for 10-second video capture. We analyzed the video with Q Capture Pro 6.0 (Teledyne Technologies, CA, USA). Aldoc gene transcriptional expressions were analyzed by quantitative real-time PCR. The protocol is as same as the treatment described previously (FIGS. 31A-31B).
Total RNA was extracted from cultured VMs using the RNeasy® Mini Kit (74106, Qiagen, Venlo, Netherlands). Complementary DNAs (cDNAs) were synthesized using a SuperScript® […] First-Strand Synthesis System (18080051, Thermo Fisher Science). […]

Tbx18-PC tissue sheets = experiment: Beating rate / electrical firing of engineered Tbx18-PC tissue sheets; type: cell-based, rat; conditions: epinephrine 0.15 μg/mL
Procedure: The fibroblasts and VMs were mixed in a ratio of 1:10 (fibroblast/VMs, total cell number: 1×10^6) with an extracellular matrix of 10% Matrigel (354230, Corning®) in the cultured-insert (80209, 0.22 mm^2, ibidi GmbH, Grsfelfing, Germany) for gelation at 37° C. The engineered tissue was transduced with adenoviral human Tbx18 or control vectors 24 hours after gelation. The constant beating was usually observed 4-5 days after Tbx18 adenovirus transduction. Therefore, phenotypes were determined using immunofluorescence staining, beating rate (either video recording or microelectrode array), and real-time quantitative PCR after virus transduction for 5-6 days. The autonomic response of Tbx18-PC tissue sheets was evaluated by treatment with epinephrine (Taiwan Biotech Co., Ltd, Taoyuan, Taiwan).
The Tbx18-PC cocultures were treated with 200 nM siRNAs (Dharmacon™, GE Healthcare, Lafayette, CO, USA or GenePharma, Shanghai, China) or negative controls (nontarget siRNAs, D-001810-10-05, Dharmacon™ or negative controls, GenePharma) for 24 hours using DharmaFECT transfection reagent (Dharmacon™) in serum-free and antibiotic-free medium. Cells were incubated at 37° C. in 5% C02 for 96 hours, and the beating rate was recorded by microelectrode array (MEA) or video. Then, total RNA was extracted for real-time PCR analysis. […]

mouse SAN = experiment: Heart rate recording (ECG) in mice; type: in vivo; conditions: epinephrine 2.5 μg intraperitoneal, control (scramble) mice
Procedure: Male mice (C57BL/6, 26 to 32 g, 13-14 weeks, National Laboratory Animal Center, Taiwan) were mechanically ventilated at a controlled temperature (37° C.±0.5° C.) under general anesthesia (isoflurane). […] AAV9 siRNA or scramble virus with a reporter of green fluorescent protein (1.44×10^9 gene copies; AAV9 scramble siRNA [iAAV01509] and Aldoc siRNA pooled virus [117530940219], Applied Biological Materials, Canada) was added to the pericardial recess through the opening. […] The survival rate was 100%. All animals were included except one scramble animal. One animal from the scramble group was excluded because arrhythmia was observed before the experiment.
Two weeks later, the three-lead surface ECG (Biopac, MP36, CA, USA) was recorded on mice by inserting needle electrodes subcutaneously into the limbs after anesthesia. The heart rate was recorded for 2 minutes first to compare the knockdown and control groups. Then, we performed a peritoneal injection of epinephrine (2.5 μg, Taiwan Biotech) and recorded the heart rate for 5 minutes after the injection. After the recording, the mouse hearts were removed for tissue analysis. ECG data were analyzed by Biopac Student Lab 4.1 software (Biopac).

[2] = in-vitro, summary statement, concentration not given at the place

Aldolase C expressions (aldolase c (Aldoc); BMS-345541 5 μM, vs control): increased
aldolase c expressions within pacemaker cardiomyocytes (aldolase c (Aldoc)): increased
SMILES: Cc1ccc2nc(NCCN)c3ncc(C)n3c2c1 [BMS-345541]
beating rate ([1]; BMS-345541 1-10 μM, 4 days, vs control): increased
beating rates [1, 2]: increased
Hcn4 expressions (Hcn4; BMS-345541 5 μM, vs control): increased

Aldolase C expressions (aldolase c (Aldoc); PIK-75 high dose (10 nM), vs control): increased
aldolase c expressions within pacemaker cardiomyocytes (aldolase c (Aldoc)): increased
SMILES: Cc1ccc([N+](=O)[O-])cc1S(=O)(=O)N(C)/N=C/c1cnc2ccc(Br)cn12 [PIK-75]
beating rate ([1]; PIK-75 high dose (10 nM), 4 days, vs control): increased
beating rate ([1]; PIK-75 low dose (1-5 nM), 4 days, vs control): increased
beating rates [1, 2]: increased

More lines, now with the values behind:

SMILES: O=CC[C@@H](O)[C@H](O)[C@H](O)CO [2-DG, 2-deoxy-D-glucose]
beating rate ([1]; 2-DG 5 mM, 3 days, Tbx18-PCs): decreased
Hcn4 expression (Hcn4; 2-DG 5 mM): decreased

SMILES: Cc1nc(NC(=O)N2CCC[C@H]2C(N)=O)sc1-c1ccnc(C(C)(C)C(F)(F)F)c1 [Alpelisib]
transcriptional expressions of Aldolase C (aldolase c (Aldoc); 250 nM, control 0.87±0.05, P=0.008): 1.13±0.05
aldolase c expressions within pacemaker cardiomyocytes (aldolase c (Aldoc)): increased
beating rates [1, 2]: increased

SMILES: COc1c(OCCCN2CCOCC2)ccc2c1N=C(NC(=O)c1cnc(N)nc1)N1CCN=C21 [Copanlisib]
transcriptional expressions of Aldolase C (aldolase c (Aldoc); 10 nM, control 0.64±0.09, P=0.002): 1.32±0.09
aldolase c expressions within pacemaker cardiomyocytes (aldolase c (Aldoc)): increased
beating rates [1, 2]: increased

SMILES: C[C@H](Nc1ncnc2nc[nH]c12)c1cc2cccc(Cl)c2c(=O)n1-c1ccccc1 [Duvelisib]
transcriptional expressions of Aldolase C (aldolase c (Aldoc); 50 nM, control 0.82±0.08, P=0.02): 1.17±0.11

SMILES: C[C@H](NC(=O)c1c(N)nn2cccnc12)c1cc2cccc(C#Cc3cnn(C)c3)c2c(=O)n1-c1ccccc1 [Eganelisib]
transcriptional expressions of Aldolase C (aldolase c (Aldoc); 40 nM, control 0.57±0.03, P=0.013): 0.82±0.07
aldolase c expressions within pacemaker cardiomyocytes (aldolase c (Aldoc)): increased
beating rates [1, 2]: increased

SMILES: CC[C@H](Nc1ncnc2[nH]cnc12)c1nc2cccc(F)c2c(=O)n1-c1ccccc1 [Idelalisib]
transcriptional expressions of Aldolase C (aldolase c (Aldoc); 100 nM, control 0.87±0.05, P=0.02): 1.01±0.02
aldolase c expressions within pacemaker cardiomyocytes (aldolase c (Aldoc)): increased
beating rates [1, 2]: increased

SMILES: C[S+]([O-])c1ccc(-c2nc(-c3ccncc3)c(-c3ccc(F)cc3)[nH]2)cc1 (stereo not shown) [SB203580]
Aldoc expression (aldolase c (Aldoc); SB203580 1 μM, 3 days, cocultures, vs control): decreased; also recorded: reduced

SMILES: CNC[C@H](O)c1ccc(O)c(O)c1 [epinephrine]
beating rate (Tbx18-PC tissue sheets; Tbx18-PC tissue sheets): increased
beating rate (Tbx18-PC tissue sheets; control tissue sheets): minimal changes
heart rate (mouse SAN): increased

SMILES: CC(=O)C(=O)[O-].[Na+] [sodium pyruvate]
beating rates ([1]; sodium pyruvate 1 mM, 3 days, Tbx18-PCs): increased
Hcn4 expression (Hcn4; sodium pyruvate 1 mM): increased
